Results reported in publication PMC6270821, “ROS-Mediated Cytotoxic Effect of Copper(II) Hydrazone Complexes against Human Glioma Cells” (Molecules, 2014).

Legend:
[1] = system: U87 (p53 wild-type glioblastoma multiforme) cells; test: MTT cytotoxicity assay, U87 cells; type: cell-based, human; conditions: for IC50: MTT, 48 h treatment; for selectivity index (SI = IC50MRC5/IC50tumor cell), U87: U87 vs MRC5
Description: (§1) The in vitro cytotoxic effects of H2AcMe, H2BzMe and complexes 1 and 2 against wild type p53 U87 and mutant p53 T98 glioblastoma cells and against MRC-5 fibroblasts cells were tested using cisplatin as a positive control. To determine the IC50 (concentration that inhibits 50% of cell survival) values the cytotoxic effects were quantified using the 3-(4,5-dimethyl-2-thioazolyl)-2,5-diphenyl tetrazolium bromide (MTT) colorimetric assay. All tested compounds were cytotoxic against both glioma cell lines in a dose-dependent way. The IC50 values (see Table 1) were found in the micromolar range. Despite their cytotoxic activity, all compounds were less toxic to fibroblasts cells than cisplatin. CuCl2 evoked only mild cytotoxicity in all cell lineages with IC50 higher than 100 µM.
(§2) U87 (p53 wild-type glioblastoma multiforme) and T98 (p53 mutant glioblastoma multiforme) malignant human tumor cells and MRC5 (Human Fetal Lung Fibroblast) cells were obtained from the American Type Culture Collection (ATCC, Manassas, VA, USA). Cell lines were grown as monolayer in Dulbecco’s Modified Eagle’s Medium (DMEM, Gibco, Rockville, MD, USA), supplemented with 10% fetal bovine serum (Cultilab, Campinas, São Paulo, Brazil) and antibiotics (50 U/mL penicillin/50 […] streptomycin), in a humidified atmosphere air/CO2 (95%/5%) at 37 °C. Cells 80% confluents were used in all experiments. For all experiments, cells were seeded in 96-well plates, at a density of 1000 cells/well. After 24 h incubation cells were treated.
(§3) To determine the IC50 values the cytotoxic effects were quantified using the 3-(4,5-dimethyl-2-thioazolyl)-2,5-diphenyltetrazolium bromide (MTT) colorimetric assay. Briefly, cells were treated with increasing concentrations (10^−12, 10^−11, 10^−10, 10^−9, 10^−8, 10^−7, 10^−6, 10^−5, 10^−4 mol·L^−1) of either cisplatin (positive control) or test compounds (H2AcMe, H2BzMe, 1 and 2). The compounds were previously dissolved in dimethyl sulfoxide (DMSO) and the final concentrations were adjusted in DMEM in such manner that the final DMSO concentration was lower than 0.5%. Following 48 h treatment, MTT reagent was added to each well. Following another 4 h of incubation at 37 °C, DMSO was added to each well to dissolve formazan precipitate and absorbance was measured at 570 nm. Tests using DMSO (0.5% in DMEM) as negative control were carried out in parallel. All tests were performed in quadruplicates with full agreement between the results. Statistical analysis was carried out by the unpaired, one-tailed Student’s t testing using a p value of 0.05. A value of p < 0.05 was considered significant.

[2] = system: MRC5 (Human Fetal Lung Fibroblast) cells; test: MTT cytotoxicity assay, MRC5 fibroblasts; type: cell-based; conditions: 48 h treatment
Description: as §1, §2, §3

[3] = target: T1, bovine serum albumin (BSA) (Bos taurus, UniProt P02769); test: Fluorescence quenching of BSA; type: binding; conditions: for quenching of BSA fluorescence emission intensity: 1.0 µM BSA, up to 10.0 µM compound, excitation 280 nm, pH 7.20, 25 °C; for number of binding sites n (BSA): Scatchard equation; for binding constant K (BSA, Scatchard): phosphate buffer pH 7.20, 25 °C; for Stern-Volmer quenching constant Ksv (BSA): λ = 345 nm, 25 °C
T1 construct: purchased Sigma-Aldrich Brasil
Description: Based on fluorescence data for λ = 345 nm at 25 °C, the Stern-Volmer quenching constant (Ksv) and the bimolecular quenching rate constant (kq) were obtained using the classical Stern-Volmer equation (Equation (3)). The value of kq was calculated by the Ksv/τ0 ratio, where τ0 is the average lifetime of the fluorophore in the absence of quencher (τ0 =10 ns for BSA).
The interaction of complexes 1 and 2 with bovine serum albumin (BSA) was studied in phosphate buffer (8.3 mM, pH = 7.20). Stock solution of BSA (0.5 mM) was prepared in phosphate buffer and stored in the dark in the refrigerator for further use. The stock solutions of complexes were freshly prepared by first dissolving the compounds in DMF and then making the dilutions with phosphate buffer (pH = 7.20). The amount of DMF was kept less than 5% (by volume) for each set of experiment and had no effect on any experimental results.
(§4) The binding of the copper(II) complexes to BSA was studied using fluorescence spectra. The emission spectra were recorded in the 295–600 nm range with excitation at 280 nm. The excitation and emission slit widths and scan rates were constantly maintained for all the experiments. BSA solution (1.0 µM) was titrated by successive additions of a stock solution of the complexes (50 mM) using a micropipette. All experiments were performed at 298 K. The synchronous fluorescence spectra of BSA varying the concentration of 1 and 2 were recorded at ∆λ (difference between excitation and emission wavelength) = 15 nm and ∆λ = 60 nm.
If it is assumed that the binding of compounds with BSA occurs at equilibrium, the equilibrium binding constant can be analyzed according to the Scatchard equation [28].

[4] = target: T1, bovine serum albumin (BSA); test: Synchronous fluorescence spectra of BSA; type: binding; conditions: 1.0 µM BSA, up to 10.0 µM compound; for decrease of BSA synchronous fluorescence intensity at Δλ = 60 nm: tryptophan residues; for decrease of BSA synchronous fluorescence intensity at Δλ = 15 nm: tyrosine residues
Description: Synchronous fluorescence spectroscopy is a very useful method to study the changes in the microenvironment of tyrosine and tryptophan amino acid residues in BSA [39]. The spectra were measured after and before the addition of test compounds. The synchronous fluorescence of BSA is characteristic of tyrosine residues when the difference between excitation and emission wavelength Δλ value is 15 nm and characteristic of tryptophan residues if Δλ value is 60 nm. […] In both cases, a decrease in emission intensity of BSA with increasing complex concentration was observed. […] In the spectra at Δλ = 60 nm, an important decrease of the BSA fluorescence intensity (~41% for 1 and ~44% for 2) accompanied by a small blue shift of 1nm occurs.
as §4

T1 sequence (P02769 25-607): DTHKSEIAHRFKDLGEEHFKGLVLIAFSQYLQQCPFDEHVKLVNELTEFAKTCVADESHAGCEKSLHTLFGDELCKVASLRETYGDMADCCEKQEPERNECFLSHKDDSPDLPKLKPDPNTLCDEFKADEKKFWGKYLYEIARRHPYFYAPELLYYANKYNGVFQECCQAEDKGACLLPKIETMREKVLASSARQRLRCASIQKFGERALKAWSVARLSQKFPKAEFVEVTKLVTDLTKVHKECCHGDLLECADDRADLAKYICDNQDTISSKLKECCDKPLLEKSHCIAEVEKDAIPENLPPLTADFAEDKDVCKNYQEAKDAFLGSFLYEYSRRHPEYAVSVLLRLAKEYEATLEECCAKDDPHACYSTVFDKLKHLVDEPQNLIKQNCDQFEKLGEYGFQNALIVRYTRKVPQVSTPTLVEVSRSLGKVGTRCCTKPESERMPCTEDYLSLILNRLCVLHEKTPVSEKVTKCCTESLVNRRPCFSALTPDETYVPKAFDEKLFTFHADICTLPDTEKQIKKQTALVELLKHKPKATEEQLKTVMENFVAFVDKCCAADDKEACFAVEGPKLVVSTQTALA

For CC(=O)NN=C(C)c1ccccn1.[Cl][Cu][Cl] [compound 1, [dichloro(2-acetylpyridineacetyl-hydrazone)copper(II)]], which IC50 [1] is on record?
The IC50 was 3.02 ± 0.85 µM.

What about the “selectivity index (SI = IC50MRC5/IC50tumor cell), U87” value [1] of the same compound?
Its value is 7.45.

What about the IC50 [2] of the same compound?
The IC50 was 22.5 ± 3.13 µM.

And the “quenching of BSA fluorescence emission intensity” value [3]?
Its value is ~ 35%.

And the “number of binding sites n (BSA)” value [3]?
Its value is 1.06 ± 0.01.

And the “binding constant K (BSA, Scatchard)” value [3]?
Its value is “(1.11 ± 0.04) × 10^5 M^−1”.

And the “Stern-Volmer quenching constant Ksv (BSA)” value [3]?
Its value is “(0.55 ± 0.01) × 10^5 M^−1”.

What about the “decrease of BSA synchronous fluorescence intensity at Δλ = 60 nm” value [4] of the same compound?
Its value is ~ 41%.

And the “decrease of BSA synchronous fluorescence intensity at Δλ = 15 nm” value [4]?
The value was ~ 16%.

What does the source list for CC(=O)NN=C(c1ccccc1)c1ccccn1.[Cl][Cu][Cl] [compound 2, [dichloro(2-benzoylpyridineacetylhydrazone)copper(II)]]?
IC50 [1]: 5.95 ± 0.74 µM; selectivity index (SI = IC50MRC5/IC50tumor cell), U87 [1]: 8.30; IC50 [2]: 49.4 ± 8.83 µM; quenching of BSA fluorescence emission intensity [3]: ~ 40%; number of binding sites n (BSA) [3]: 1.06 ± 0.01; binding constant K (BSA, Scatchard) [3]: (1.37 ± 0.05) × 10^5 M^−1; Stern-Volmer quenching constant Ksv (BSA) [3]: (0.68 ± 0.01) × 10^5 M^−1; decrease of BSA synchronous fluorescence intensity at Δλ = 60 nm [4]: ~ 44%; decrease of BSA synchronous fluorescence intensity at Δλ = 15 nm [4]: ~ 18%
